These results are taken from patent US8026362B2, “Non-nucleoside reverse transcriptase inhibitors” (Roche Palo Alto LLC, priority 2007, dated 2011).

One series has as its target HIV-1 RT (Human immunodeficiency virus type 1 group M subtype B, UniProt P04585). The experiment in a line: HIV-1 Reverse Transcriptase Assay (RNA-dependent DNA polymerase activity, SPA). It is filed as biochemical. The note with it: 30° C., 30 min, 10% DMSO. The procedure: RNA-dependent DNA polymerase activity was measured using a biotinylated primer oligonucleotide and tritiated dNTP substrate. Newly synthesized DNA was quantified by capturing the biotinylated primer molecules on streptavidin coated Scintillation Proximity Assay (SPA) beads (Amersham). The sequences of the polymerase assay substrate were: 18 nt DNA primer, 5′-Biotin/GTC CCT GTT CGG GCG CCA-3′; 47 nt RNA template, 5′-GGGUCUCUCUGGUUAGACCACUCUAGCAGUGGCGCCCGAACAGGGAC-3′. The biotinylated DNA primer was obtained from the Integrated DNA Technologies Inc. and the RNA template was synthesized by Dharmacon. The DNA polymerase assay (final volume 50 μl) contained 32 nM biotinylated DNA primer, 64 nM RNA substrate, dGTP, dCTP, dTTP (each at 5 μM), 103 nM [^3H]-dATP (specific activity=[…]), in 45 mM Tris-HCl, pH 8.0, 45 mM NaCl, 2.7 mM Mg(CH3COO)2, 0.045% Triton X-100 w/v, 0.9 mM EDTA. The reactions contained 5 ul of serial compound dilutions in 100% DMSO for IC50 determination and the final concentrations of DMSO were 10%. Reactions were initiated by the addition of 30 μl of the HIV-RT enzyme (final concentrations of 1-3 nM). Protein concentrations were adjusted to provide linear product formation for at least 30 min of incubation. After incubation at 30° C. for 30 min, the reaction was quenched by addition of 50 μl of 200 mM EDTA (pH 8.0) and […] SA-PVT SPA beads (Amersham, RPNQ0009, reconstituted in 20 mM Tris-HCl, pH 8.0, 100 mM EDTA and 1% BSA). The beads were left to settle overnight and the SPA signals were counted in a 96-well top counter-NXT (Packard).

Consider `Cc1cn(Cc2ccc(Br)c(Oc3cc(Cl)cc(C#N)c3)c2F)c(=O)nc1N` [Compound I-13, 3-[3-(4-Amino-5-methyl-2-oxo-2H-pyrimidin-1-ylmethyl)-6-bromo-2-fluoro-phenoxy]-5-chloro-benzonitrile], for which the melting point (commonly the temperature of the solid-liquid transition) fell in the range of 262.7 to 263.7 °C. For the same molecule, at HIV-1 RT, the midpoint of inhibition, the IC50, lay at 19.6 nM.
`N#Cc1cc(Cl)cc(Oc2c(Br)ccc(Cn3cc(F)c(=O)[nH]c3=O)c2F)c1` [Compound I-6, 3-[6-Bromo-2-fluoro-3-(5-fluoro-2,4-dioxo-3,4-dihydro-2H-pyrimidin-1-ylmethyl)-phenoxy]-5-chloro-benzonitrile] came in with a melting point of 234 to 236 °C. Further, at HIV-1 RT, the IC50 (commonly the concentration that inhibits the measured activity by half) stood at 2.2 nM.
The molecule `N#Cc1cc(C#N)cc(Oc2c(Br)ccc(Cn3cc(Cl)c(=O)[nH]c3=O)c2F)c1` [Compound I-9, 5-[6-Bromo-3-(5-chloro-2,4-dioxo-3,4-dihydro-2H-pyrimidin-1-ylmethyl)-2-fluoro-phenoxy]-isophthalonitrile] had a melting point of 255 to 255.6 °C. This molecule also gave a half-maximal inhibitory concentration (IC50) against HIV-1 RT of 5.2 nM.
Turning to `N#Cc1cc(Cl)cc(Oc2c(Br)ccc(Cn3cc(O)c(=O)[nH]c3=O)c2F)c1` [Compound I-30, 3-[6-Bromo-2-fluoro-3-(5-hydroxy-2,4-dioxo-3,4-dihydro-2H-pyrimidin-1-ylmethyl)-phenoxy]-5-chloro-benzonitrile], the melting point fell in the range of 238 to 240 °C. Also, at HIV-1 RT, half-maximal inhibition (IC50) required 34.5 nM.
On the same counts, the results for `Cc1cn(Cc2ccc(Br)c(Oc3cc(C#N)cc(C(F)F)c3)c2F)c(=O)[nH]c1=O` [Compound I-27, 3-[6-Bromo-2-fluoro-3-(5-methyl-2,4-dioxo-3,4-dihydro-2H-pyrimidin-1-ylmethyl)-phenoxy]-5-difluoromethyl-benzonitrile] are 232.3 to 234.8 °C and 3.3 nM.
The corresponding values for `N#Cc1cc(Cl)cc(Oc2c(Br)ccc(Cn3cc(CO)c(=O)[nH]c3=O)c2F)c1` [Compound I-24, 3-[6-Bromo-2-fluoro-3-(5-hydroxymethyl-2,4-dioxo-3,4-dihydro-2H-pyrimidin-1-ylmethyl)-phenoxy]-5-chloro-benzonitrile] are 226 to 227 °C and 11.1 nM.
Consider `Cc1cn(Cc2ccc(Br)c(Oc3cc(C#N)cc(C#N)c3)c2F)c(=O)[nH]c1=O` [Compound I-8, 5-[6-Bromo-2-fluoro-3-(5-methyl-2,4-dioxo-3,4-dihydro-2H-pyrimidin-1-ylmethyl)-phenoxy]-isophthalonitrile], for which the melting point was in the range of 235.6 to 236 °C. This molecule returned an IC50 on HIV-1 RT of 4.3 nM.
Take `N#Cc1cc(Cl)cc(Oc2c(Br)ccc(Cn3cc(C(F)(F)F)c(=O)[nH]c3=O)c2F)c1` [Compound I-7, 3-[6-Bromo-3-(2,4-dioxo-5-trifluoromethyl-3,4-dihydro-2H-pyrimidin-1-ylmethyl)-2-fluoro-phenoxy]-5-chloro-benzonitrile]: the melting point was in the range of 110 to 112 °C. This molecule returned an IC50 on HIV-1 RT of 6 nM.
The corresponding values for `Cn1cc(Cc2ccc(Br)c(Oc3cc(Cl)cc(C#N)c3)c2F)c(=O)[nH]c1=O` [Compound I-31, 3-[6-Bromo-2-fluoro-3-(1-methyl-2,4-dioxo-1,2,3,4-tetrahydro-pyrimidin-5-ylmethyl)-phenoxy]-5-chloro-benzonitrile] are 226 to 227 °C and 5.9 nM.
The corresponding values for `CCc1ccc(Cn2cc(C)c(=O)[nH]c2=O)c(F)c1Oc1cc(Cl)cc(C#N)c1` [Compound I-25, 3-Chloro-5-[6-ethyl-2-fluoro-3-(5-methyl-2,4-dioxo-3,4-dihydro-2H-pyrimidin-1-ylmethyl)-phenoxy]-benzonitrile] are 180.5 to 181.5 °C and 1.8 nM.
On the same counts, the results for `Cc1cn(Cc2ccc(Cl)c(Oc3cc(Cl)cc(C#N)c3)c2F)c(=O)[nH]c1=O` [Compound I-17, 3-Chloro-5-[6-chloro-2-fluoro-3-(5-methyl-2,4-dioxo-3,4-dihydro-2H-pyrimidin-1-ylmethyl)-phenoxy]-benzonitrile] are 226 to 227.5 °C and 3.1 nM.
At HIV-1 RT, `CN1C(=O)NC(=O)C1Cc1ccc(Br)c(Oc2cc(Cl)cc(C#N)c2)c1F` (centres unmarked) [Compound I-32, 3-[6-Bromo-2-fluoro-3-(3-methyl-2,5-dioxo-imidazolidin-4-ylmethyl)-phenoxy]-5-chloro-benzonitrile] came in with an IC50 of 6.3 nM.
In turn, `C[C@@H]1C(=O)NC(=O)N1Cc1ccc(Br)c(Oc2cc(Cl)cc(C#N)c2)c1F` [Compound I-21, 3-[6-Bromo-2-fluoro-3-((R)-5-methyl-2,4-dioxo-imidazolidin-1-ylmethyl)-phenoxy]-5-chloro-benzonitrile] showed a melting point of 119 to 120 °C. Moreover, at HIV-1 RT, inhibition was half-maximal at 16.9 nM (IC50).
In turn, `Cc1cc(=O)[nH]c(=O)n1Cc1ccc(Br)c(Oc2cc(Cl)cc(C#N)c2)c1F` [Compound I-16, 3-[6-Bromo-2-fluoro-3-(6-methyl-2,4-dioxo-3,4-dihydro-2H-pyrimidin-1-ylmethyl)-phenoxy]-5-chloro-benzonitrile] gave a melting point of 227 to 228 °C. The molecule further had an IC50 against HIV-1 RT of 26.1 nM.
Molecule `CCc1ccc(Cn2cc(Cl)c(=O)[nH]c2=O)c(F)c1Oc1cc(Cl)cc(C#N)c1` [Compound I-26, 3-Chloro-5-[3-(5-chloro-2,4-dioxo-3,4-dihydro-2H-pyrimidin-1-ylmethyl)-6-ethyl-2-fluoro-phenoxy]-benzonitrile] came in with an IC50 on HIV-1 RT of 1.4 nM.
Same read-out and setting: under `CCc1cn(Cc2ccc(Br)c(Oc3cc(C#N)cc(C#N)c3)c2F)c(=O)[nH]c1=O` [Compound I-10, 5-[6-Bromo-3-(5-ethyl-2,4-dioxo-3,4-dihydro-2H-pyrimidin-1-ylmethyl)-2-fluoro-phenoxy]-isophthalonitrile] stands 13.5 nM.
On to `N#Cc1cc(Cl)cc(Oc2c(Br)ccc(CN3CC(=O)NC3=S)c2F)c1` [Compound I-28, 3-[6-Bromo-2-fluoro-3-(4-oxo-2-thioxo-imidazolidin-1-ylmethyl)-phenoxy]-5-chloro-benzonitrile], for which the melting point was 172 to 173 °C. For the same molecule, on HIV-1 RT, half-maximal inhibition (IC50) was put at 86 nM.
The corresponding values for `CCc1cn(Cc2ccc(Br)c(Oc3cc(Cl)cc(C#N)c3)c2F)c(=O)[nH]c1=O` [Compound I-5, 3-[6-Bromo-3-(5-ethyl-2,4-dioxo-3,4-dihydro-2H-pyrimidin-1-ylmethyl)-2-fluoro-phenoxy]-5-chloro-benzonitrile] are 224.6 to 225.6 °C and 1.6 nM.
On the same counts, the results for `Cc1cn(CCc2ccc(Br)c(Oc3cc(Cl)cc(C#N)c3)c2F)c(=O)[nH]c1=O` [Compound I-14, 3-{6-Bromo-2-fluoro-3-[2-(5-methyl-2,4-dioxo-3,4-dihydro-2H-pyrimidin-1-yl)-ethyl]-phenoxy}-5-chloro-benzonitrile] are 198 to 200 °C and 7 nM.
The corresponding values for `COc1cn(Cc2ccc(Br)c(Oc3cc(Cl)cc(C#N)c3)c2F)c(=O)[nH]c1=O` [Compound I-19, 3-[6-Bromo-2-fluoro-3-(5-methoxy-2,4-dioxo-3,4-dihydro-2H-pyrimidin-1-ylmethyl)-phenoxy]-5-chloro-benzonitrile] are 190 to 191.1 °C and 2.9 nM.
In turn, `N#Cc1cc(Cl)cc(Oc2c(Br)ccc(Cn3cc(C#N)c(=O)[nH]c3=O)c2F)c1` [Compound I-15, 1-[4-Bromo-3-(3-chloro-5-cyano-phenoxy)-2-fluoro-benzyl]-2,4-dioxo-1,2,3,4-tetrahydro-pyrimidine-5-carbonitrile] returned a melting point of 246.9 to 247.8 °C. Moreover, half-maximal inhibition on HIV-1 RT (IC50) required 61.2 nM.
Turning to `Cc1cn(Cc2ccc(Br)c(Oc3cc(Cl)cc(C#N)c3)c2F)c(=S)[nH]c1=O` [Compound I-23, 3-[6-Bromo-2-fluoro-3-(5-methyl-4-oxo-2-thioxo-3,4-dihydro-2H-pyrimidin-1-ylmethyl)-phenoxy]-5-chloro-benzonitrile], the melting point lay within 225 to 226 °C. This molecule had an IC50 on HIV-1 RT of 5.5 nM.
For `N#Cc1cc(Cl)cc(Oc2c(Br)ccc(Cn3ccc(=O)[nH]c3=O)c2F)c1` [Compound I-3, 3-[6-Bromo-3-(2,4-dioxo-3,4-dihydro-2H-pyrimidin-1-ylmethyl)-2-fluoro-phenoxy]-5-chloro-benzonitrile], the melting point lay within 229 to 230.5 °C. The molecule also returned a 50% inhibitory concentration (IC50) at HIV-1 RT of 3.6 nM.
The corresponding values for `N#Cc1cc(Cl)cc(Oc2c(Br)ccc(CN3CCC(=O)NC3=O)c2F)c1` [Compound I-1, 3-[6-Bromo-3-(2,4-dioxo-tetrahydro-pyrimidin-1-ylmethyl)-2-fluoro-phenoxy]-5-chloro-benzonitrile] are 161.5 to 163 °C and 28.7 nM.
The corresponding values for `N#Cc1cc(Cl)cc(Oc2c(Cl)ccc(Cn3cc(Cl)c(=O)[nH]c3=O)c2F)c1` [Compound I-18, 3-Chloro-5-[6-chloro-3-(5-chloro-2,4-dioxo-3,4-dihydro-2H-pyrimidin-1-ylmethyl)-2-fluoro-phenoxy]-benzonitrile] are 267.2 to 268 °C and 3.7 nM.
